Measured values from patent US9242966B2, “Phthalazines as potassium ion channel inhibitors” (BRISTOL-MYERS SQUIBB COMPANY, priority 2013, dated 2016).

Biological target: T1, human KV 1.5 (Homo sapiens, UniProt P22460)
T1 construct: expressed in transfected cells; host or cells: mammalian L-929 cells (mouse fibroblast line)
Experiment: Block of IKur current in patch clamped L-929 cells expressing human Kv1.5
Assay type: cell-based
Conditions: 0.3 μM; patch clamped mammalian L-929 cells stably expressing human Kv1.5 (IKur)
Excerpt: 1. Synders, D. J.; et al., “A rapidly activating and slowly inactivating potassium channel cloned from human heart: functional analysis after stable mammalian cell culture expression”, J. Gen. Physiol., 101:513-543 (1993). […]

T1 sequence (P22460 whole entry): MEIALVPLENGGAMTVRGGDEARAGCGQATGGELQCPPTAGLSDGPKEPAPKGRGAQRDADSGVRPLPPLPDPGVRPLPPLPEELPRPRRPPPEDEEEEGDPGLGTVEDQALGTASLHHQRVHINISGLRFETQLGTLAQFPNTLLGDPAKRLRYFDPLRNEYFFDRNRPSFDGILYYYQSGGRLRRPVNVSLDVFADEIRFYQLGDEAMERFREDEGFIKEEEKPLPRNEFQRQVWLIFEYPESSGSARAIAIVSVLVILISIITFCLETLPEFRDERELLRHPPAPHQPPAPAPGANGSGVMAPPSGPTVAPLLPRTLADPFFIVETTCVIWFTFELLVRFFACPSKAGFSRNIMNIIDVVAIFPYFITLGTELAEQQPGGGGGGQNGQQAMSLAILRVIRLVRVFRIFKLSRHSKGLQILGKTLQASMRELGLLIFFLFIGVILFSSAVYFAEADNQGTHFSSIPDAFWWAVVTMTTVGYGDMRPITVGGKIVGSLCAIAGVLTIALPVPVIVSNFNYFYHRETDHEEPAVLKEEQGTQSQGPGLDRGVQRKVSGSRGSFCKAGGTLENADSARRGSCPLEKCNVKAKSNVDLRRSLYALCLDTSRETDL

Row | KV1_5% Inh L929 @0.3 μM [%] | Structure (SMILES)
1 | 84 | CC(Nc1nnc(-c2cncc(S(N)(=O)=O)c2)c2cccc(-c3ccccc3)c12)c1ccccn1 (centres unmarked) [Example 34, 5-(5-Phenyl-4-((1-(pyridin-2-yl)ethyl)amino)phthalazin-1-yl)pyridine-3-sulfonamide]

Same assay, conditions: L929, 0.3 μM; patch clamped mammalian L-929 cells stably expressing human Kv1.5 (IKur); read-out: KV1_5% Inh L929 @0.3 μM

Row | inhibition at 0.3 µM [%] | Structure (SMILES)
2 | 87.4 | NS(=O)(=O)c1cncc(-c2nnc(NCc3ccccc3F)c3c(-c4ccccc4)cccc23)c1 [Example 31, 5-(4-((2-Fluorobenzyl)amino)-5-phenylphthalazin-1-yl)pyridine-3-sulfonamide]
3 | 86.3 | CC(C)(Nc1nnc(-c2cncc(S(N)(=O)=O)c2)c2cccc(-c3ccccc3)c12)c1ccccn1 [Example 35, 5-(5-Phenyl-4-((2-(pyridin-2-yl)propan-2-yl)amino)phthalazin-1-yl)pyridine-3-sulfonamide]
4 | 91.1 | NS(=O)(=O)c1cncc(-c2nnc(NCc3c(F)cccc3F)c3c(-c4ccccc4)cccc23)c1 [Example 36, 5-(4-((2,6-Difluorobenzyl)amino)-5-phenylphthalazin-1-yl)pyridine-3-sulfonamide]
5 | 78.6 | NS(=O)(=O)c1cncc(-c2nnc(NCc3ncccc3F)c3c(-c4ccccc4)cccc23)c1 [Example 37, 5-(4-((3-Fluoropyridin-2-yl)methylamino)-5-phenylphthalazin-1-yl)pyridine-3-sulfonamide]
6 | 72.5 | COc1ccccc1CNc1nnc(-c2cncc(S(N)(=O)=O)c2)c2cccc(-c3ccccc3)c12 [Example 19, 5-(4-((2-Methoxy-benzyl)amino)-5-phenylphthalazin-1-yl)pyridine-3-sulfonamide]
7 | 41.5 | NS(=O)(=O)c1cncc(-c2nnc(NCc3ccccc3)c3c(-c4ccc(F)cc4)cccc23)c1 [Example 28, 5-(4-(Benzylamino)-5-(4-fluorophenyl)phthalazin-1-yl)pyridine-3-sulfonamide]
8 | 68.1 | NS(=O)(=O)c1cncc(-c2nnc(NCc3ncccn3)c3c(-c4ccccc4)cccc23)c1 [Example 29, 5-(5-Phenyl-4-((pyrimidin-2-ylmethyl)amino)phthalazin-1-yl)pyridine-3-sulfonamide]
9 | 90.5 | NS(=O)(=O)c1cncc(-c2nnc(NCc3ccccc3)c3c(-c4ccccc4)cccc23)c1 [Example 8, 5-(4-(Benzylamino)-5-phenylphthalazin-1-yl)pyridine-3-sulfonamide]
10 | 79.5 | NS(=O)(=O)c1cncc(-c2nnc(NCc3ccccn3)c3c(-c4ccccc4)cccc23)c1 [Example 1, 5-(5-Phenyl-4-(pyridin-2-ylmethylamino)phthalazin-1-yl)pyridine-3-sulfonamide]
11 | 90.2 | NS(=O)(=O)c1cncc(-c2nnc(NCc3cccc(OC(F)(F)F)c3)c3c(-c4ccccc4)cccc23)c1 [Example 40, 5-(5-Phenyl-4-((3-(trifluoromethoxy)benzyl)amino)phthalazin-1-yl)pyridine-3-sulfonamide]
12 | 78.4 | NS(=O)(=O)c1cncc(-c2nnc(NCc3cc(Cl)cc(Cl)c3)c3c(-c4ccccc4)cccc23)c1 [Example 39, 5-(4-((3,5-Dichlorobenzyl)amino)-5-phenylphthalazin-1-yl)pyridine-3-sulfonamide]
13 | 94.9 | NS(=O)(=O)c1cncc(-c2nnc(NCc3cccc(C(F)(F)F)c3)c3c(-c4ccccc4)cccc23)c1 [Example 38, 5-(5-Phenyl-4-((3-(trifluoromethyl)benzyl)amino)phthalazin-1-yl) pyridine-3-sulfonamide]
14 | 86.8 | C[C@H](Nc1nnc(-c2cncc(S(N)(=O)=O)c2)c2cccc(-c3ccccc3)c12)c1ccccc1 [Example 43, (S)-5-(5-Phenyl-4-((1-phenylethyl)amino)phthalazin-1-yl)pyridine-3-sulfonamide]

The next lines start with the molecule.

Row | Structure (SMILES) | inhibition at 0.3 µM [%]
15 | CS(=O)(=O)Nc1cccc(NC(=O)c2cncc(-c3nnc(NCc4ccccn4)c4c(-c5ccccc5)cccc34)c2)c1 [Example 14, N-(3-(Methylsulfonamido)phenyl)-5-(5-phenyl-4-(pyridin-2-ylmethylamino)phthalazin-1-yl)nicotinamide] | 71
16 | NC(=O)c1cncc(-c2nnc(NCc3ccccc3)c3c(-c4ccccc4)cccc23)c1 [Example 23, 5-(4-(Benzyl-amino)-5-phenylphthalazin-1-yl)nicotinamide] | 83.5
17 | CC(=O)Nc1cncc(-c2nnc(NCc3ccccn3)c3c(-c4ccccc4)cccc23)c1 [Example 11, N-(5-(5-Phenyl-4-(pyridin-2-ylmethylamino)phthalazin-1-yl)pyridin-3-yl)acetamide] | 78.8
18 | COc1ncc(-c2nnc(NCc3ccccc3)c3c(-c4ccccc4)cccc23)cn1 [Example 26, N-Benzyl-4-(2-methoxy-pyrimidin-5-yl)-8-phenylphthalazin-1-amine] | 93.1
19 | CC(=O)Nc1cncc(-c2nnc(NCc3ccccc3)c3c(-c4ccccc4)cccc23)c1 [Example 2, N-(5-(4-(Benzylamino)-5-phenylphthalazin-1-yl)pyridin-3-yl)acetamide] | 83.9
20 | Nc1cncc(-c2nnc(NCc3ccccn3)c3c(-c4ccccc4)cccc23)c1 [Example 9, 4-(5-Aminopyridin-3-yl)-8-phenyl-N-(pyridin-2-ylmethyl) phthalazin-1-amine] | 87.1
21 | OCC(O)c1cncc(-c2nnc(NCc3ccccn3)c3c(-c4ccccc4)cccc23)c1 (racemic) [Example 7, 1-(5-(5-Phenyl-4-(pyridin-2-ylmethylamino)phthalazin-1-yl)pyridin-3-yl)ethane-1,2-diol] | 16
22 | CC(C)OC(=O)Nc1cncc(-c2nnc(NCc3ccccc3)c3c(-c4ccccc4)cccc23)c1 [Example 4] | 95.4
23 | CC(C)(C)CCNC(=O)c1cncc(-c2nnc(NCc3ccccn3)c3c(-c4ccccc4)cccc23)c1 [Example 47, N-(3,3-Dimcthylbutyl)-5-(5-phenyl-4-((pyridin-2-ylmethyl)amino)phthalazin-1-yl)nicotinamide] | 96.4
24 | CC(C)OC(=O)Nc1cncc(-c2nnc(NCc3ccccn3)c3c(-c4ccccc4)cccc23)c1 [Example 12, Isopropyl 5-(5-phenyl-4-(pyridin-2-ylmethylamino)phthalazin-1-yl)pyridin-3-ylcarbamate] | 91.6
25 | O=C(NCC(O)CO)c1cncc(-c2nnc(NCc3ccccn3)c3c(-c4ccccc4)cccc23)c1 (centres unmarked) [Example 6, N-(2,3-Dihydroxypropyl)-5-(5-phenyl-4-(pyridin-2-ylmethylamino)phthalazin-1-yl)nicotinamide] | 38.3
26 | O=C(NCc1ccc(OC(F)(F)F)cc1)c1cncc(-c2nnc(NCc3ccccn3)c3c(-c4ccccc4)cccc23)c1 [Example 44, 5-(5-Phenyl-4-((pyridin-2-ylmethyl)amino)phthalazin-1 yl)-N-(4-(trifluoromethoxy)benzyl)nicotinamide] | 96.5
27 | CC(C)CC(=O)Nc1cncc(-c2nnc(NCc3ccccn3)c3c(-c4ccccc4)cccc23)c1 [Example 30, 3-Methyl-N-(5-(5-phenyl-4-((pyridin-2-ylmethyl)amino)phthalazin-1-yl)pyridin-3-yl)butanamide] | 92.5
28 | CCOC(=O)c1cncc(-c2nnc(NCc3ccccc3)c3c(-c4ccccc4)cccc23)c1 [Example 24, Ethyl 5-(4-(benzyl-amino)-5-phenylphthalazin-1-yl) nicotinate] | 96.5
29 | NC(=O)Nc1cncc(-c2nnc(NCc3ccccc3)c3c(-c4ccccc4)cccc23)c1 [Example 10, 1-(5-(4-(Benzylamino)-5-phenylphthalazin-1-yl)pyridin-3-yl)urea] | 51.1
30 | CC(Nc1nnc(-c2cncc(S(N)(=O)=O)c2)c2cccc(-c3ccccc3)c12)c1ccccn1 (centres unmarked) [Example 33, 5-(5-Phenyl-4-((1-(pyridin-2-yl)ethyl)amino)phthalazin-1-yl)pyridine-3-sulfonamide] | 71.1
31 | Cc1cnc(CNC(=O)c2cncc(-c3nnc(NCc4ccccn4)c4c(-c5ccccc5)cccc34)c2)cn1 [Example 45, N-((5-Methylpyrazin-2-yl)methyl)-5-(5-phenyl-4-((pyridin-2-ylmelhyl)amino)phthalazin-1-yl) nicotinamide] | 75.6
32 | CC(C)(C)Oc1cc(-c2nnc(NCc3ccccc3)c3c(-c4ccccc4)cccc23)ccn1 [Example 13, N-Benzyl-4-(2-tert-butoxypyridin-4-yl)-8-phenylphthalazin-1-amine] | 43
33 | CC(=O)Nc1ccc(-c2nnc(NCc3ccccc3)c3c(-c4ccccc4)cccc23)cn1 [Example 21, N-(5-(4-(Benzyl-amino)-5-phenylphthalazin-1-yl)pyridin-2-yl)acetamide] | 97.9
34 | CS(=O)(=O)Nc1cncc(-c2nnc(NCc3ccccc3)c3c(-c4ccccc4)cccc23)c1 [Example 3, N-(5-(4-(Benzylamino)-5-phenylphthalazin-1-yl)pyridin-3-yl)methanesulfonamide] | 77.3
35 | O=C(NCCc1ccccc1F)c1cncc(-c2nnc(NCc3ccccn3)c3c(-c4ccccc4)cccc23)c1 [Example 50, N-(2-Fluorophenethyl)-5-(5-phenyl-4-((pyridin-2-ylmethyl)amino)phthalazin-1-yl)nicotinamide] | 98.6
36 | Nc1ccc(-c2nnc(NCc3ccccc3)c3c(-c4ccccc4)cccc23)cn1 [Example 20, 4-(6-Aminopyridin-3-yl)-N-benzyl-8-phenylphthalazin-1-amine] | 92.8
37 | C[C@@H](Nc1nnc(-c2cncc(S(N)(=O)=O)c2)c2cccc(-c3ccccc3)c12)c1ccccc1 [Example 42, (R)-5-(5-Phenyl-4-((1-phenylethyl)amino)phthalazin-1-yl)pyridine-3-sulfonamide] | 91.2
38 | Oc1cc(-c2nnc(NCc3ccccc3)c3c(-c4ccccc4)cccc23)ccn1 [Example 25, 4-(4-(Benzyl-amino)-5-phenylphthalazin-1-yl)pyridin-2-ol] | 80.2
